Numbered stars: 1 amine (or outer) side, 2 acyl side, 3 side chain; on linkers, the order of the positions; unused ones are H or OH. Bridge positions count the residues as written; N and C are the ends. Square brackets hold non-standard residues; d marks the D form. Peptide text beside a SMILES is read from it. * marks the point of attachment. Ala(piperidin-4-yl) = O=C([C@H](CC1CCN([*:3])CC1)N[*:1])[*:2]; DOTA = O=C(O)CN1CCN(CC(=O)O)CCN(CC(=O)*)CCN(CC(=O)O)CC1; Phe(4-CH2NH2) = NCc1ccc(C[C@H](N)C(=O)O)cc1; Phe(2-Cl) = N[C@@H](Cc1ccccc1Cl)C(=O)O; 1Nal = N[C@@H](Cc1cccc2ccccc12)C(=O)O; 2Nal = N[C@@H](Cc1ccc2ccccc2c1)C(=O)O; NMetBuAla = CN[C@@H](CC(C)(C)C)C(=O)O; NMeChg = CN[C@H](C(=O)O)C1CCCCC1; tBuAla = CC(C)(C)C[C@H](N)C(=O)O; 3Pal = N[C@@H](Cc1cccnc1)C(=O)O; 4Pal = N[C@@H](Cc1ccncc1)C(=O)O; NMeQ = CN[C@@H](CCC(N)=O)C(=O)O; AllylGly = C=CC[C@H](N)C(=O)O; Chg = N[C@H](C(=O)O)C1CCCCC1; Pen = CC(C)(S)[C@H](N)C(=O)O; Tle = CC(C)(C)[C@H](N)C(=O)O; αMeP = C[C@@]1(C(=O)O)CCCN1; NMeS = CN[C@@H](CO)C(=O)O; Nle = CCCC[C@H](N)C(=O)O; Ahx = NCCCCCC(=O)O
Target: T1, human DLL3 (Homo sapiens, UniProt Q9NYJ7)
T1 construct: biotin (biotinylated)
T1 sequence (Q9NYJ7 27-618): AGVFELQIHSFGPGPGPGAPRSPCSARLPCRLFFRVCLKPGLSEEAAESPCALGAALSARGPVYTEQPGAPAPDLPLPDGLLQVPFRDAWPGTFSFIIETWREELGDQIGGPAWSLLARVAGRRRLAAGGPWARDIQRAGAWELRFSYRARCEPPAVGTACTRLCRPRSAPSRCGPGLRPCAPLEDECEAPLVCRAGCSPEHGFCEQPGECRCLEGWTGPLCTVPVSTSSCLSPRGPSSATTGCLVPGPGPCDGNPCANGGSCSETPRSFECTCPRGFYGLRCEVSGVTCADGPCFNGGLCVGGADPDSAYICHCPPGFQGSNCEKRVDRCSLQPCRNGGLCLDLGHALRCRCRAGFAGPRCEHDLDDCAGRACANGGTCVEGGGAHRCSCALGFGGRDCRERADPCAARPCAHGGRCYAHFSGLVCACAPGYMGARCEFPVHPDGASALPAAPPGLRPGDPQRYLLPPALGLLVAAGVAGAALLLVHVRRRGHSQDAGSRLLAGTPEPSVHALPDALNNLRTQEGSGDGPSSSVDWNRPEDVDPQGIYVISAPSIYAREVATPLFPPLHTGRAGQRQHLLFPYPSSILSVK
Assay: Affinity determination by Surface Plasmon Resonance (SPR), Biacore, 1:1 binding model
Settings: biotinylated human DLL3 on streptavidin chip, 25° C.; NB = nonbinding
Method in brief: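 SPR with biotinylated human DLL3 captured on a streptavidin chip, with a reference surface subtracted. Samples were injected at several concentrations at 100 μL/min in phosphate buffer with 137 mM NaCl, 2.7 mM KCl, 0.05% P20 and 2% DMSO. Kinetic and affinity constants came from a 1:1 binding fit.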

| SMILES | Kd [nM] | SPR KD (nM) |
| --- | --- | --- |
| CC(=O)N[C@@H](CC1CCNCC1)C(=O)N(C)[C@@H](CO)C(=O)N[C@@H](CC(=O)O)C(=O)N[C@H]1C/C=C/C[C@@H](C(=O)N2CCC[C@@]2(C)C(=O)N[C@@H](Cc2ccccc2)C(=O)N[C@@H](CC(=O)O)C(N)=O)NC(=O)[C@H](CC(N)=O)NC(=O)[C@H](Cc2ccc3ccccc3c2)NC(=O)[C@H](Cc2ccc(CNC(=O)CN3CCN(CC(=O)O)CCN(CC(=O)O)CCN(CC(=O)O)CC3)cc2)NC(=O)[C@H](CC(C)(C)C)NC(=O)[C@H](Cc2cccc3ccccc23)NC1=O [compound 190, Ac-[3-(4-piperidinyl)-Ala]-(NMe-Ser)-D-AllyG(4)-(1Nal)-(t-Bu-Ala)-[PAF(DOTA)]-(2Nal)-N-AllyG(4)-(aMe-P)-F-D-CONH2] (Ac-[Ala(piperidin-4-yl)][NMeS]D[AllylGly][1Nal][tBuAla][Phe(4-CH2NH2)](DOTA)[2Nal]N[AllylGly][αMeP]FD-NH2; staple (E) 4-10) | 1.51 | – |
| C[C@@H](NC(=O)CN1CCN(CC(=O)O)CCN(CC(=O)O)CCN(CC(=O)O)CC1)C(=O)N[C@@H](CO)C(=O)N[C@@H](CC(=O)O)C(=O)N[C@H]1C/C=C/C[C@@H](C(=O)N2CCC[C@@]2(C)C(=O)N[C@@H](Cc2ccccc2)C(=O)N[C@@H](CC(=O)O)C(N)=O)NC(=O)[C@H](CC(N)=O)NC(=O)[C@H](Cc2ccc3ccccc3c2)NC(=O)[C@H](CC2CCNCC2)NC(=O)[C@H](CC(C)(C)C)NC(=O)[C@H](Cc2cccc3ccccc23)NC1=O [Cpd #196, DOTA-(D-Ala)-S-D-AllyG(4)-(1Nal)-(t-Bu-Ala)-[3-(4-piperidinyl)-Ala]-(2Nal)-N-AllyG(4)-(aMe-P)-F-D-CONH2] ({DOTA}-[dA]SD[AllylGly][1Nal][tBuAla][Ala(piperidin-4-yl)][2Nal]N[AllylGly][αMeP]FD-NH2; staple (E) 4-10) | 0.52 | – |
| CC(=O)N[C@H](C(=O)N[C@@H](CO)C(=O)N[C@@H](CC(=O)O)C(=O)N[C@H]1CSSC[C@@H](C(=O)N2CCC[C@@]2(C)C(=O)N[C@@H](Cc2ccccc2Cl)C(=O)N[C@@H](CC(=O)O)C(=O)N[C@H](CCCCNC(=O)CN2CCN(CC(=O)O)CCN(CC(=O)O)CCN(CC(=O)O)CC2)C(N)=O)NC(=O)[C@H](CC(N)=O)NC(=O)[C@H](Cc2c[nH]c3ccccc23)NC(=O)[C@H](CCC(N)=O)NC(=O)[C@H](CC(C)C)NC(=O)[C@H](Cc2cccc3ccccc23)NC1=O)C1CCCCC1 [compound 118, Ac-(Chg)-S-D-C(3)-(1Nal)-L-Q-W-N-C(3)-(aMe-P)-(2Cl-Phe)-D-D-Lys(DOTA)-CONH2] (Ac-[Chg]SDC[1Nal]LQWNC[αMeP][Phe(2-Cl)]D[dK](DOTA)-NH2; disulfide 4-10) | 0.74 | – |
| CCCC[C@H](NC(C)=O)C(=O)N[C@@H](CO)C(=O)N[C@@H](CC(=O)O)C(=O)N[C@H]1CSSC[C@@H](C(=O)N2CCC[C@H]2C(=O)N[C@@H](Cc2ccccc2)C(=O)N[C@@H](CC(=O)O)C(=O)N[C@H](CCCCNC(=O)CN2CCN(CC(=O)O)CCN(CC(=O)O)CCN(CC(=O)O)CC2)C(N)=O)NC(=O)[C@H](CC(N)=O)NC(=O)[C@H](Cc2c[nH]c3ccccc23)NC(=O)[C@H](CCC(N)=O)NC(=O)[C@H](CC(C)C)NC(=O)[C@H](Cc2c[nH]c3ccccc23)NC1=O [compound 79, Ac-Nle-S-D-C(3)-W-L-Q-W-N-C(3)-P-F-D-D-Lys(DOTA)-CONH2] (Ac-[Nle]SDCWLQWNCPFD[dK](DOTA)-NH2; disulfide 4-10) | 9 | – |
| CC(=O)N[C@H](C(=O)N[C@@H](CO)C(=O)N[C@@H](CC(=O)O)C(=O)N[C@H]1CSSC[C@@H](C(=O)N2CCC[C@@]2(C)C(=O)N[C@@H](Cc2ccccc2)C(=O)N[C@@H](CC(=O)O)C(=O)N[C@H](CCCCNC(=O)CN2CCN(CC(=O)O)CCN(CC(=O)O)CCN(CC(=O)O)CC2)C(N)=O)NC(=O)[C@H](CC(N)=O)NC(=O)[C@H](Cc2ccc3ccccc3c2)NC(=O)[C@H](CCC(N)=O)NC(=O)[C@H](C(C)(C)C)NC(=O)[C@H](Cc2cccc3ccccc23)NC1=O)C1CCCCC1 [compound 129, Ac-(Chg)-S-D-C(3)-(1Nal)-(TBG)-Q-(2Nal)-N-C(3)-(aMe-P)-F-D-D-Lys(DOTA)-CONH2] (Ac-[Chg]SDC[1Nal][Tle]Q[2Nal]NC[αMeP]FD[dK](DOTA)-NH2; disulfide 4-10) | – | slow kon |
| CC(=O)N[C@H](C(=O)N[C@@H](CO)C(=O)N[C@@H](CC(=O)O)C(=O)N[C@H]1CSSC(C)(C)[C@@H](C(=O)N2CCC[C@@]2(C)C(=O)N[C@@H](Cc2ccccc2)C(=O)N[C@@H](CC(=O)O)C(=O)N[C@H](CCCCNC(=O)CN2CCN(CC(=O)O)CCN(CC(=O)O)CCN(CC(=O)O)CC2)C(N)=O)NC(=O)[C@H](CC(N)=O)NC(=O)[C@H](Cc2c[nH]c3ccccc23)NC(=O)[C@H](CCC(N)=O)NC(=O)[C@H](CC(C)C)NC(=O)[C@H](Cc2cccc3ccccc23)NC1=O)C1CCCCC1 [compound 120, Ac-(Chg)-S-D-C(3)-(1Nal)-L-Q-W-N-Pen(3)-(aMe-P)-F-D-D-Lys(DOTA)-CONH2] (Ac-[Chg]SDC[1Nal]LQWN[Pen][αMeP]FD[dK](DOTA)-NH2; disulfide 4-10) | > 30 | – |
| CC(=O)N[C@H](C)C(=O)N[C@H](CO)C(=O)N[C@@H](CC(=O)O)C(=O)N[C@H]1CSSC[C@@H](C(=O)N2CCC[C@@]2(C)C(=O)N[C@@H](Cc2ccccc2)C(=O)N[C@@H](CC(=O)O)C(=O)N[C@H](CCCCNC(=O)CN2CCN(CC(=O)O)CCN(CC(=O)O)CCN(CC(=O)O)CC2)C(N)=O)NC(=O)[C@H](CC(N)=O)NC(=O)[C@H](Cc2ccc3ccccc3c2)NC(=O)[C@H](Cc2cccnc2)NC(=O)[C@H](C2CCCCC2)NC(=O)[C@H](Cc2cccc3ccccc23)NC1=O [compound 127, Ac-(D-Ala)-(D-Ser)-D-C(3)-(1Nal)-(Chg)-(3Pya)-(2Nal)-N-C(3)-(aMe-P)-F-D-D-Lys(DOTA)-CONH2] (Ac-[dA][dS]DC[1Nal][Chg][3Pal][2Nal]NC[αMeP]FD[dK](DOTA)-NH2; disulfide 4-10) | 0.5 | – |
| CC(=O)N[C@H](C(=O)N[C@@H](CO)C(=O)N[C@@H](CC(=O)O)C(=O)N[C@H]1CSSC[C@@H](C(=O)N2CCC[C@@]2(C)C(=O)N[C@@H](Cc2ccncc2)C(=O)N[C@@H](CC(=O)O)C(=O)N[C@H](CCCCNC(=O)CN2CCN(CC(=O)O)CCN(CC(=O)O)CCN(CC(=O)O)CC2)C(N)=O)NC(=O)[C@H](CC(N)=O)NC(=O)[C@H](Cc2c[nH]c3ccccc23)NC(=O)[C@H](CCC(N)=O)NC(=O)[C@H](CC(C)C)NC(=O)[C@H](Cc2cccc3ccccc23)NC1=O)C1CCCCC1 [compound 137, Ac-(Chg)-S-D-C(3)-(1Nal)-L-Q-W-N-C(3)-(aMe-P)-(4Pya)-D-[D-Lys(DOTA)]-NH2] (Ac-[Chg]SDC[1Nal]LQWNC[αMeP][4Pal]D[dK](DOTA)-NH2; disulfide 4-10) | > 30 | – |
| CC(=O)N[C@@H](CC1CCNCC1)C(=O)N[C@@H](CO)C(=O)N[C@@H](CC(=O)O)C(=O)N[C@H]1CSSC[C@@H](C(=O)N2CCC[C@@]2(C)C(=O)N[C@@H](Cc2ccccc2)C(=O)N[C@@H](CC(=O)O)C(N)=O)NC(=O)[C@H](CC(N)=O)NC(=O)[C@H](Cc2ccc3ccccc3c2)NC(=O)[C@H](Cc2ccc(CNC(=O)CN3CCN(CC(=O)O)CCN(CC(=O)O)CCN(CC(=O)O)CC3)cc2)NC(=O)[C@H](CC(C)(C)C)N(C)C(=O)[C@H](Cc2cccc3ccccc23)NC1=O [compound 180, Ac-[3-(4-piperidinyl)-Ala]-S-D-C(3)-(1Nal)-(NMe-Tba)-[PAF(DOTA)]-(2Nal)-N-C(3)-(aMe-P)-F -D-CONH2] (Ac-[Ala(piperidin-4-yl)]SDC[1Nal][NMetBuAla][Phe(4-CH2NH2)](DOTA)[2Nal]NC[αMeP]FD-NH2; disulfide 4-10) | > 30 | – |
| CC(C)C[C@@H]1NC(=O)[C@H](Cc2c[nH]c3ccccc23)NC(=O)[C@@H](NC(=O)[C@H](CC(=O)O)NC(=O)[C@H](CO)NC(=O)CCCCCNC(=O)CN2CCN(CC(=O)O)CCN(CC(=O)O)CCN(CC(=O)O)CC2)CSSC[C@@H](C(=O)N2CCC[C@H]2C(=O)N[C@@H](Cc2ccccc2)C(=O)N[C@@H](CC(=O)O)C(N)=O)NC(=O)[C@H](CC(N)=O)NC(=O)[C@H](Cc2c[nH]c3ccccc23)NC(=O)[C@H](CCC(N)=O)N(C)C1=O [compound 93, DOTA-Ahx-S-D-C(3)-W-L-(NMe-Gln)-W-N-C(3)-P-F-D-CONH2] ({DOTA-Ahx}-SDCWL[NMeQ]WNCPFD-NH2; disulfide 3-9) | > 100 | – |
| CC(=O)N[C@H](C(=O)N[C@@H](CO)C(=O)N[C@@H](CC(=O)O)C(=O)N[C@H]1CSSC[C@@H](C(=O)N2CCC[C@@]2(C)C(=O)N[C@@H](Cc2ccccc2)C(=O)N[C@@H](CC(=O)O)C(=O)N[C@H](CCCCNC(=O)CN2CCN(CC(=O)O)CCN(CC(=O)O)CCN(CC(=O)O)CC2)C(N)=O)NC(=O)[C@H](CC(N)=O)NC(=O)[C@H](Cc2ccc3ccccc3c2)NC(=O)[C@H](CC2CCNCC2)NC(=O)[C@H](C2CCCCC2)N(C)C(=O)[C@H](Cc2cccc3ccccc23)NC1=O)C1CCCCC1 [compound 183, Ac-Chg-S-D-C(3)-(1Nal)-(NMe-Chg)-[3-(4-piperidinyl)-Ala]-(2Nal)-N-C(3)-(aMe-P)-F -D-[D-Lys(DOTA)]-NH2] (Ac-[Chg]SDC[1Nal][NMeChg][Ala(piperidin-4-yl)][2Nal]NC[αMeP]FD[dK](DOTA)-NH2; disulfide 4-10) | > 30 | – |

From patent US20250186541A1, “DLL3 TARGETING PEPTIDES AND CONSTRUCTS THEREOF” (MARIANA ONCOLOGY INC., priority 2023, published 2025)
